This passage reports IC50 results from patent publication US11236106B2, “Cycloalkane-1,3-diamine derivative” (Daiichi Sankyo Company, Limited, priority 2018, dated 2022).

Where a name gives a salt, the structure may show the parent alone.

The target in the first test is T1, menin and MLL (menin, Flag tagged; biotinylated MLL1 peptide 1-46aa) (Homo sapiens, UniProt O00255).
T1 sequence (O00255 1-610): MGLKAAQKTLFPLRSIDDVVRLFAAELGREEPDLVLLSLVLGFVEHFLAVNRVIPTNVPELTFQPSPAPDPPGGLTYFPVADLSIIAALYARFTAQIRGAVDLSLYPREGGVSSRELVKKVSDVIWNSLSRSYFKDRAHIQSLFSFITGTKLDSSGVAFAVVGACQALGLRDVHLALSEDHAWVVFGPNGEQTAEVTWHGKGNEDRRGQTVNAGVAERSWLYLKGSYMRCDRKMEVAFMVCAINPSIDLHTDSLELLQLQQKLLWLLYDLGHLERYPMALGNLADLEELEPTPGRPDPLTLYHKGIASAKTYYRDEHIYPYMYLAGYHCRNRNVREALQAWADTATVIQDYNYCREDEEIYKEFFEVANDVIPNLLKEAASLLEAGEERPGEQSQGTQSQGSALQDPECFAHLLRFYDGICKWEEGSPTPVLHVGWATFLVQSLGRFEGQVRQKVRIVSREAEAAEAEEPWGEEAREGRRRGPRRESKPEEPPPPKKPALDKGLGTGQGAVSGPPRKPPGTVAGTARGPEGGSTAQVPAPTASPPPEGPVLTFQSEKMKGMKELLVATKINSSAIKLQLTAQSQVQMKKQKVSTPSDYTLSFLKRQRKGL
As to the kind of experiment: biochemical.
Conditions: not given
For orientation: IC50 means the midpoint of a concentration-inhibition curve. `COc1nc(N(C)[C@H]2C[C@@H](NCc3ccc(-c4cc(OC)c(OC)cn4)cc3)C[C@H]2O)c2cc(CC(F)(F)F)sc2n1` [Example 116, (1R,2S,4R)-4-({[4-(4,5-dimethoxypyridin-2-yl)phenyl]methyl}amino)-2-{[2-methoxy-6-(2,2,2-trifluoroethyl)thieno[2,3-d]pyrimidin-4yl](methyl)amino}cyclopentan-1-ol hydrochloride]: the 50% inhibitory concentration (IC50) came to 1 nM.

Still in this test, the particulars now being: IC50, binding inhibitory activity between menin and MLL, AlphaLISA; 1 nM menin, 10 nM biotinylated MLL1 peptide.
Take `COc1cc(-c2ccc(CN[C@H]3C[C@@H](O)[C@@H](N(C)c4ncnc5sc(CC(F)(F)F)cc45)C3)cc2)nnc1Oc1cccnc1` [Example 107, (1R,2S,4R)-4-{[(4-{5-methoxy-6-[(pyridin-3-yl)oxy]pyridazin-3-yl}phenyl)methyl]amino}-2-{methyl[6-(2,2,2-trifluoroethyl)thieno[2,3-d]pyrimidin-4-yl]amino}cyclopentan-1-ol hydrochloride]: the IC50 came to 1.3 nM.
Still for that read-out and setting: in the case of `CN(c1ncnc2sc(CC(F)(F)F)cc12)[C@H]1C[C@@H](NCc2ccc(-c3cccc(CS(C)(=O)=O)c3)cc2)C[C@H]1O` [Example 86, (1R,2S,4R)-4-[({3′-[(methanesulfonyl)methyl][1,1′biphenyl]-4-yl}methyl)amino]-2-{methyl[6-(2,2,2 trifluoroethyl)thieno[2,3-d]pyrimidin-4-yl]amino}cyclopentan-1-ol hydrochloride] it was 20.9 nM.
For the compound `COc1nc(N(C)[C@H]2C[C@@H](NCc3ccc(-c4cnc(S(C)(=O)=O)c(OC)c4)cc3)C[C@H]2O)c2cc(CC(F)(F)F)sc2n1` [Example 94, (1R,2S,4R)-4-[({4-[6-(methanesulfonyl)-5-methoxypyridin-3-yl]phenyl}methyl)amino]-2-{[2-methoxy-6-(2,2,2-trifluoroethyl)thieno[2,3-d]pyrimidin-4-yl](methyl)amino}cyclopentan-1-ol hydrochloride], the 50% inhibitory concentration (IC50) came to 2.1 nM.
The compound `COc1nc(N(C)[C@H]2C[C@@H](NCc3ccc(-c4cnc(F)c(OC)c4)cc3)C[C@H]2O)c2cc(CC(F)(F)F)sc2n1` [Example 91, (1R,2S,4R)-4-({[4-(6-fluoro-5-methoxypyridin-3yl)phenyl]methyl}amino)-2{[2-methoxy6-(2,2,2-trifluoroethyl)thieno[2,3-d]pyrimidin-4-yl](methyl)amino}cyclopentan-1-ol hydrochloride] had an IC50 of 1.3 nM.
The compound `CN(c1ncnc2sc(CC(F)(F)F)cc12)[C@H]1C[C@@H](NCc2ccc(-c3cnc(Cl)c4cc[nH]c34)cc2)C[C@H]1O` [Example 70, (1R,2S,4R)-4-({[4-(4-chloro-1H-pyrrolo[3,2-c]pyridin-7-yl)phenyl]methyl}amino)-2-{methyl[6-(2,2,2-trifluoroethyl)thieno[2,3-d]pyrimidin-4-yl]amino}cyclopentan-1-ol hydrochloride] displayed an IC50 of 3.8 nM.
Still for that read-out and setting: in the case of `CNc1nc(N(C)[C@H]2C[C@@H](NCc3ccc(-c4cc(F)c(F)c(OC)c4)cc3)C[C@H]2O)c2cc(CC(F)(F)F)sc2n1` [Example 82, (1R,2S,4R)-4-{[(3′,4′-difluoro-5′-methoxy[1,1′-biphenyl]-4-yl)methyl]amino}-2-{methyl[2-(methylamino)-6-(2,2,2-trifluoroethyl)thieno[2,3-d]pyrimidin-4-yl]amino}cyclopentan-1-ol hydrochloride] it was 22.8 nM; in that of `COc1nc(N(C)[C@H]2C[C@@H](NCC3CCN(c4cc(OC)c(OC)nn4)CC3)C[C@H]2O)c2cc(CC(F)(F)F)sc2n1` [Example 115, (1R,2S,4R)-4-({[1-(5,6-dimethoxypyridazin-3-yl)piperidin-4-yl]methyl}amino)-2-{[2-methoxy-6-(2,2,2-trifluoroethyl)thieno[2,3-d]pyrimidin-4-yl](methyl)amino}cyclopentan-1-ol hydrochloride], 10.9 nM.
On the same count and under the same terms, under `COc1nc(N(C)[C@H]2C[C@@H](NCc3ccc(-c4cnc(OC)c(OC)c4)cc3)C[C@H]2O)c2cc(CC(F)(F)F)sc2n1` [Example 81, (1R,2S,4R)-4-({[4-(5,6-dimethoxypyridin-3-yl)phenyl]methyl}amino)-2-{[2-methoxy-6-(2,2,2-trifluoroethyl)thieno[2,3-d]pyrimidin-4-yl](methyl)amino}cyclopentan-1-ol hydrochloride] stands 6.1 nM; under `COc1cc(-c2ccc(CN[C@H]3C[C@@H](OC)[C@@H](N(C)c4ncnc5sc(CC(F)(F)F)cc45)C3)cc2)nnc1OC` [Example 127, (1R,3S,4R)—N^1-{[4-(5,6-dimethoxypyridazin-3-yl)phenyl]methyl}-4-methoxy-N^3-methyl-N^3-[6-(2,2,2-trifluoroethyl)thieno[2,3-d]pyrimidin-4-yl]cyclopentane-1,3-diamine Hydrochloride], 1.6 nM; under `CN(c1ncnc2sc(CC(F)(F)F)cc12)[C@@H]1CC[C@H](NCc2ccc(-c3cnc4c(c3)OCCO4)cc2)C1` [Example 63, (1R,3S)-N^3-{[4-(2,3-dihydro[l,4]dioxino[2,3-b]pyridin-7-yl)phenyl]methyl}-N^1-methyl-N^1-[6-(2,2,2-trifluoroethyl)thieno[2,3-d]pyrimidin-4-yl]cyclopentane-1,3-diamine hydrochloride], 19.9 nM.
The same measure, in the same setting: under `COc1nc(N(C)[C@H]2C[C@@H](NCc3ccc(-c4nnc(OC(F)F)cc4OC)cc3)C[C@H]2O)c2cc(CC(F)(F)F)sc2n1` [Example 110, (1R,2S,4R)-4-[({4-[6-(difluoromethoxy)-4-methoxypyridazin-3-yl]phenyl}methyl)amino]-2-{[2-methoxy-6-(2,2,2-trifluoroethyl)thieno[2,3-d]pyrimidin-4-yl](methyl)amino}cyclopentan-1-ol hydrochloride] stands 2.1 nM.

The same test, now with this note: cell free IC50 (nM), 1 nM menin, 10 nM biotinylated MLL1 peptide, AlphaLISA.
Turning to `Cc1c(CN[C@H]2CC[C@@H](N(C)c3ncnc4sc(CC(F)(F)F)cc34)C2)ccc2c1cc(C#N)n2Cc1cn[nH]c1` [Example 2, 4-methyl-5-({[(1S,3R)-3-{methyl[6-(2,2,2-trifluoroethyl)thieno[2,3-d]pyrimidin-4-yl]amino}cyclopentyl]amino}methyl)-1-[(1H-pyrazol-4-yl)methyl]-1H-indole-2-carbonitrile Hydrochloride], the IC50 came to 12.8 nM.
Still for that read-out and setting: in the case of `O=C1CCCN1Cc1ccc(CN[C@H]2CCC[C@@H](Nc3ncnc4sc(CC(F)(F)F)cc34)C2)cc1` [Example 38, 1-{[4-({[(1S,3R)-3-{[6-(2,2,2-trifluoroethyl)thieno[2,3-d]pyrimidin-4-yl[amino}cyclohexy]amino}methyl)phenyl]methyl}pyrrolidin-2-one hydrochloride] it was 1850 nM.
Still for that read-out and setting: under `COc1cncc(Nc2ccc(CN[C@H]3CC[C@@H](N(C)c4ncnc5sc(CC(F)(F)F)cc45)C3)cc2)c1` [Example 8, (1R,3S)—N^3-({4-[(5-methoxypyridin-3-yl)amino]phenyl}methyl)-N^1-methyl-N^1-[6-(2,2,2-trifluoroethyl)thieno[2,3-d]pyrimidin-4-yl]cyclopentane-1,3-diamine Hydrochloride] stands 8.8 nM.
The same measure, in the same setting: in the case of `CN(c1ncnc2sc(CC(F)(F)F)cc12)[C@@H]1CC[C@H](NCc2ccc(N3CCc4ccccc43)cc2)C1` [Example 56, (1R,3S)-N^3-{[4-(2)-3-dihydro-1H-indol-1-yl)phenyl]methyl}-N^1-methyl-N^1-[6-(2,2,2-trifluoroethyl)thieno[2,3-d]pyrimidin-4-yl]cyclopentane-1,3-diamine hydrochloride] it was 43.6 nM; in that of `CN(c1ncnc2sc(CC(F)(F)F)cc12)[C@@H]1CC[C@H](NCc2ccc(-c3cnc4ccoc4c3)cc2)C1` [Example 14, (1R,3S)—N^3-{[4-(furo[3,2-b]pyridin-6-yl)phenyl]methyl}-N^1-methyl-N^1-[6-(2,2,2-trifluoroethyl)thieno[2,3-d]pyrimidin-4-yl]cyclopentane-1,3-diamine Hydrochloride], 27.4 nM.
`CN(c1ncnc2sc(CC(F)(F)F)cc12)[C@@H]1CC[C@H](NCC2CCCCC2)C1` [Example 28, (1R,3S)-N^3-(cyclohexylmethyl)-N^1-methyl-N^1-[6-(2,2,2-trifluoroethyl)thieno[2,3-d]pyrimidin-4-yl]cyclopentane-1,3-diamine hydrochloride] came in with an IC50 of 1160 nM.
The same measure, in the same setting: in the case of `COc1cncc(-c2ccc(CN(C)[C@@H]3C[C@H](O)C[C@H](Nc4ncnc5sc(CC(F)(F)F)cc45)C3)cc2)c1` [Example 16, (1R,3S,5R)-3-[{[4-(5-methoxypyridin-3-yl)phenyl]methyl}(methyl)amino]-5-{[6-(2,2,2-trifluoroethyl)thieno[2,3-d]pyrimidin-4-yl]amino}cyclohexan-1-ol] it was 1870 nM.
The same measure, in the same setting: under `COc1cncc(-c2ccc(CN[C@H]3CC[C@@H](N(C)c4nc(C)nc5sc(CC(F)(F)F)cc45)C3)cn2)c1` [Example 46, (1R,3S)-N^3-[(5′-methoxy[2,3′-bipyridine]-5-yl)methyl]-N^1-methyl-N^1-[2-methyl-6-(2,2,2-trifluoroethyl)thieno[2,3-d]pyrimidin-4-yl]cyclopentane-1,3-diamine hydrochloride] stands 39.4 nM; under `COc1cncc(-c2ccc(CN[C@@H]3C[C@H](Nc4ncnc5sc(CC(F)(F)F)cc45)CC(F)(F)C3)cc2)c1` [Example 52, (1R,3S)-5,5-difluoro-N^1-{[4-(5-methoxypyridin-3-yl)phenyl]methyl}-N^3-[6-(2,2,2-trifluoroethyl)thieno[2,3-d]pyrimidin-4-yl]cyclohexane-l,3-diamine hydrochloride], 612 nM.
